Measurements: patent publication US9951093B2, “Chiral compounds substituted with phosphonic acid ester functions or phosphonic acid functions” (UGISense AG, priority 2006, dated 2018)

Test system: HIV-1-NL4-3
Experiment: p24 ELISA in H9 cells chronically infected with HIV-1-NL4-3 (antisense effect)
Format: cell-based
Conditions: H9 cells chronically infected with HIV-1-NL4-3, 5 days of incubation, p24 GAG ELISA
Protocol: H9 cells, chronically infected with strain HIV-1-NL4-3 are washed twice with a PBS buffer in order to remove viruses already produced. The cells are incubated in a 96-well plate with 10^4 cells/well, 4 wells per sample, in 200 μl culturing medium with or without a compound according to the invention or Ritonavir, respectively, at a distinct concentration. After 5 days of incubation, 40 μl of the cell suspension are taken from each of the 4 wells and inactivated with 40 μl Nonidet P-40.
The amount of the antigen p24 GAG is determined by a quantitative ELISA assay (Sandwich-ELISA-Biotin-Strepavidin-HRP) according to the standard method of the Institute for Applied Microbiology in Vienna. As a standard, samples with a known amount of p24 are used to investigate the standard calibration curve.
In this context, in the case of stereochemically non-uniform oligomers of the sequence […]-NH2 (SEQ ID NO: 1), a reduction of the amount of p24 of 21% can be observed compared with the untreated sample.

Which “reduction of the amount of p24 compared with the untreated sample” value does the source give for “TCGCTGCCAAAGAGT-NH2: stereochemically non-uniform oligomers of the sequence TCGCTGCCAAAGAGT-NH2 (SEQ ID NO: 1), as in EP 1157031 (3'-NH2, stereochemically non-uniform, chemistry not fully specified)” here?
The value was 21%.
